# Values of other authors in PMC12216204 (Scientific Reports, 2025).
# How the values were obtained:
# [1] = system: orthotopic MDA-MB-231 (TNBC) tumors
Substance,uptake by the non-cancerous cells (non-cancerous cells),proteolytic stability,accumulation in mice bearing orthotopic MDA-MB-231 (TNBC) tumors [1]
WXEAAYQkFL (head to tail) [cy18-4],minimal uptake,proteolytically stable,accumulated primarily at the tumor site
WXEAAYQRFL [compound 18],,not proteolytically stable,
